Patent publication US20100239562A1, “Kv CHANNELS IN NEURODEGENERATION AND NEUROPROTECTION” (priority 2006, published 2010)
Where a SMILES comes first, the peptide text is derived from it. The star is where a group is joined. Cbz = O=C(OCc1ccccc1)*; CH2F = FC*

Legend:
[1] = target: Kv1.3 channel (voltage-gated potassium channel) on human fetal neurons / neuronal precursor cells (human); assay: cell-based or functional assay
Human astrocyte cultures = format: cell-based; conditions: recombinant GrB 1-4 nM
Description: Enriched human fetal astroglia were cultured as previously described. Briefly, human fetal brain specimens of 12-17 weeks gestation were triturated after removal of the meninges. Cells were then cultured in T75 flasks in DMEM with 10% FBS and 1% antibiotics for at least 1 month. After shaking at 180 rpm for 1 h, cells were separated with trypsin/EDTA. Cells were then seeded at 1×10^5/ml in 96 well plates for 1 week before treatment. >95% of these cells were immunostained for GFAP.
(§1) Recombinant GrB induces toxicity in neurons but not in astroglia. […] We next determined the effect of perform on GrB induced neurotoxicity. We used threshold toxic concentrations of perform (50 ng/ml) for these experiments. […] We next determined if the GrB mediated toxicity could also occur in astrocytes. Human astrocyte cultures were similarly treated with recombinant GrB (dose-1-4 nM) and monitored for neurotoxicity.

[2] = system: Human fetal neuronal cultures; assay: Cyclic AMP assay in neuronal cultures; format: cell-based; conditions: GrB 1 nM, 0-30 min
Description: Human fetal neuronal cultures were seeded at 5×10^5/ml in 12 well plates for 1 week before treatment. Cultures were then treated with GrB (1 nM) in Locke's buffer for 0-30 min. After removing the media the cells were treated with 100 μl of 0.1 M HCl for 10 min to achieve cell lysis. The lysate was centrifuged at 600 g for 10 min and the supernatant was used directly for the cyclic AMP assay. Cyclic AMP competitive ELISA kit (ENDOGEN, Rockford, Ill.) was used according to manufacturer's directions.

Primary neurons = assay: Calcium imaging (Fura-2/AM) of cytosolic calcium in neurons; format: cell-based
Description: FIG. 4-4B. disrupts calcium homeostasis in neurons. Primary neurons were exposed to GrB for 30 min before imaging of intracellular calcium using Fura-2AM. (FIG. 4A). Resting levels of cytosolic calcium were increased by treatment with 1.0-100 nM GrB. (FIG. 4B). SDF-1α (10 μM) evoked increases of cytosolic calcium were increased by pre-treatment of neurons with 10 nM GrB. * P<0.001.
Cytosolic calcium ([Ca^2+]c) was determined using the ratiometric calcium probe Fura-2/AM using methods similar to those previously described (36). Cells were incubated in 2 μM Fura-2/AM for 20 min at 37° C. in media and washed with Locke's Buffer (154 mM NaCl, 3.6 mM NaHCO3, 5.6 mM KCl, 1 mM MgCl2, 5 mM HEPES, 2.3 mM CaCl2, 10 mM glucose; pH 7.4) to remove extracellular Fura-2/AM. Fura-2 loaded cells were placed into a open bath chamber and maintained at 37° C. (Series 20 open perfusion chamber and TC-344B temperature controller; Warner Instruments. Hamden, Conn.). Buffer flowed over the cells at the rate of ˜2 ml/min using a VC-6 perfusion control system with a multi-input manifold that minimized dead space, allowing for a rapid change between buffer and buffer containing drug. Cells were alternatively excited at 340 and 380 nm by a monochrometer and emission was recorded at 510 with software from Intracellular Imaging (Intracellular Imaging Inc., Cincinnati, Ohio.) […] ratios were converted to nM [Ca^2+]c using curve fitting software and calcium reference standards (Molecular Probes).

[3] = system: Human fetal neuron cultures; assay: GrB neurotoxicity by caspase-3 activation and nuclear fragmentation; format: cell-based; conditions: recombinant GrB 0.5 to 4 nM
Description: Human fetal neuron cultures on cover slips were treated with GrB (1 nM) for 24 h. Caspase-3 and βIII tubulin expression in neurons was determined by immunocytochemistry. Briefly, cells were fixed with 4% paraformaldehyde for 5 min, and then blocked with 3% FBS in PBS for 20 min. Polyclonal caspase-3 antiserum (1:500) and monoclonal anti-BIII tubulin (1 μg/ml; Promega, Madison. WI) antibody were then applied and cover slips incubated overnight at 4° C. After washing with PBS, the cover slips were incubated with secondary antibodies (1:200 Donkey anti-rabbit IgG Alexa Fluor 594 and anti-mouse IgG Alexa Fluor 488, Molecular Probes, Eugene, Oreg.) for 2 h. Hochest 33258 (10 μM) was added at the last half an hour to stain the nucleus. The cells were imaged by confocal microscopy.
as §1

Kv1.3 [4] = assay: Kv1.3 immunostaining in GB-treated neurons; format: cell-based, human; conditions: GB 4 nM, 16 hours
Description: FIG. 7A-7H. Expression of Kv1.3 on neurons and toxicity by Granzyme B. Human fetal neuronal cultures were treated with GB (4 nM; FIGS. 7E-7H) or control with no GB (FIGS. 7A-7D) and immunostained with antisera to beta-tubulin (red; FIGS. 7A and 7E) Kv1.3 (green; FIGS. 7C and 7G) and Hoechst (blue; FIGS. 7B and 7F), 16 hours following treatment. […] FIGS. 7D and 7H show merged images with immunostaining with both antisera and Hoechst.
Expression of voltage gated channel, Kv1.3, in neurons. We discovered that that similar to T cells small basal levels of Kv1.3 channel were expressed on neurons. […] Similar increases in Kv1.3 immunostaining in neurons were also noted upon treatment with supernatants from activated T cells (FIG. 7A-7H).

[5] = system: Neuronal precursor cells (NPC); assay: Caspase-3 activation in GrB-treated NPC cultures (Western-blot); format: cell-based; conditions: for effect on GB-induced caspase-3 activation: GrB 4 nM 24 hours, pretreatment PTX 100 ng/ml, ROCK-I 10 nM or MgTX 10 nM
Kv1.3 [6] = assay: Kv1.3 immunostaining in GrB-treated NPC; format: cell-based; conditions: GrB 4 nM, 24 hours
Description: FIG. 9A-9H. […] NPC cultures on cover slips were treated with GrB (4 nM; FIGS. 9B, 9D, 9F, and 9H) for 24 hours or controls without GrB (FIGS. 9A, 9C, 9E, and 9G). The cells were then fixed in 4% paraformaldehyde and immunostained with mAb against nestin (FIGS. 9A-9B) and polyclonal Ab against Kv1.3, followed by fluorescence-conjugated secondary Abs (FIGS. 9C-9D). Nuclei were stained with Hoechst 33342 (Calbiochem, 10 μM; FIGS. 9E-9F). The cells were imaged by confocal microscopy. As shown, more than 98% of the cells were positive for nestin and also moderately stained for Kv1.3 in the control cultures.

human fetal neurons = assay: Trypan blue uptake neurotoxicity assay in GrB-treated neuronal cultures; format: cell-based
Description: (§2) FIG. 8A-8B Protection against Granzyme B neurotoxicity by Kv1.3 inhibitors. Human fetal neuronal cultures were treated with GB (4 nM) in the presence or absence of various K channel blockers. (FIG. 8A) Cell viability was determined by staining with CYTOQUANT™ blue and the staining was quantitated by a plate reader. […] (FIG. 8B) Cell viability was determined by staining with trypan blue and the % of cells staining were counted which represent dead cells. A minimum of 500 cells was counted in each well and each treatment was done in triplicate.
Human fetal neurons were cultured as previously described (35). Briefly, human fetal brain specimens of 12-17 weeks gestation were obtained in accordance with NIH guidelines. The tissues were then triturated after removing the meninges. Cells were then cultured in T75 flasks in opti-MEM with 5% FBS, 0.5% N2 supplement and 1% antibiotics. Neurons were collected by carefully shaking the flask at least 1 month later. Cells were then seeded at 1×10^5/ml in 96 well plates for 1 week before treatment. These cultures contain 70-80% neurons, <5% microglia and the remaining cells are astrocytes as determined by immunostaining for microtubule associated antigen (MAP-2), CD68 and glial fibrillary acidic protein (GFAP) respectively.
For trypan blue uptake, neuronal cells were seeded at 1×10^5/ml and incubated for 1 week in 96-well plates before treatment. […] The cells were then stained with trypan blue for 5 min, washed with phosphate buffered saline, pH7.4 (PBS) and fixed with 4% paraformaldehyde. Trypan blue positive and negative cells were counted in three pre-determined fields. Approximately 200 cells were counted in each well. Each experiment was done in triplicate wells and mean and SEM were calculated from at least three independent experiments.

[7] = system: Human fetal neuronal cultures; assay: CYTOQUANT blue cell viability, GB-treated neuronal cultures with K channel blockers; format: cell-based; conditions: GB 4 nM; CYTOQUANT blue staining, plate reader
Description: as §2

[8] = system: Neuronal precursor cells (NPC); assay: Neuronal differentiation of NPC (βIII-tubulin / GFAP immunostaining); format: cell-based; conditions: MgTX 10 nM for 7 days in differentiating media
Description: FIG. 11. Kv1.3 specific blocker enhanced neuronal differentiation in NPC. NPC cultures were treated with (FIGS. 11D-11F) or without (FIGS. 11A-11C) Kv1.3 specific blocker MgTX (10 nM) for 7 days in differentiating media. The cells were then fixed in 4% paraformaldehyde and immunostained with mAb against neuron specific βIII-tubulin (FIGS. 11A, 11D) and polyclonal Ab against astrocyte specific GFAP (FIGS. 11B, 11E), followed by fluorescence-conjugated second Abs. The cells were observed and images were taken under confocal microscopy. […] FIGS. 11C and 11F show the merged images.

[9] = agent 10 μM added 1 h prior to GrB, trypan blue uptake 48 h later

With “margatoxin (MgTX), Kv1.3 specific blocker (from UniProt P40755 1-39) (peptide)” the protection of human fetal neurons against GB (4 nM) toxicity, trypan blue staining (% dead cells) [1] was 1 to 10 nM.

In the case of “GrB: 32-kDa serine protease of lymphocyte granules; recombinant GrB used”, the “cell death in astrocyte cultures” value (Human astrocyte cultures) is reported as “No evidence of cell death”, the cAMP levels [2] is reported as “significant decreases at 5 min” and the “SDF-1α-evoked ER calcium release, peak increase” value (Primary neurons; cultures pre-treated with GrB (10 nM), SDF-1α) is reported as 1000 nM. For the same molecule, the “resting [Ca2+]c” value (Primary neurons; higher dose of GrB, within 30 min) was “four fold”, the “resting concentration of [Ca2+]c” value (Primary neurons; lowest concentration tested, 1 nM GrB, within 30 min) was “doubled” and the “minimum concentration needed to cause significant neurotoxicity” value [3] was 1 nM. For the same molecule, the “Kv1.3 channel expression in neurons” value (Kv1.3 [4]) was “increased expression of Kv1.3 channel in a subpopulation of cells”, the “caspase-3 activation in NPC” value ([5]; GrB 4 nM, 24 hours) was “induced caspase-3 activation” and the “Kv1.3 expression in NPC” value (Kv1.3 [6]) was “significant increase in Kv1.3 expression”.

In the case of O=C[C@@H](O)[C@@H](O)[C@H](O)[C@H](O)COP(=O)(O)O [Mannose-6-phosphate, D-mannose 6-phosphate], the “inhibition of GrB-induced neurotoxicity” value (human fetal neurons; pretreated with 10 mM mannose-6-phosphate, then GrB 1 nM, trypan blue uptake, 48 h) is reported as “unable to inhibit GrB-induced neurotoxicity”.

“rTrtyustoxin: non-specific voltage gated K channel blocker (VFINAKCRGSPECLPKCKEAIGKAAGKCMNGKCKCYP)” was tested, and the “protection against GB neurotoxicity (cell viability, optical density)” value [7] was “protective”.

In the case of pertussis toxin, the “blocking of GrB-induced neurotoxicity” value (human fetal neurons; 10 μM pertussis toxin, added 1 h prior to GrB, trypan blue uptake, 48 h) is reported as “blocked” and the “effect on GB-induced caspase-3 activation” value [5] is reported as “attenuated GB-induced caspase-3 activation”.

With dendrotoxin the “protection against GB neurotoxicity (cell viability, optical density)” value [7] was “failed to protect against GB neurotoxicity”.

For COC(=O)C[C@H](NC(=O)[C@H](C)NC(=O)[C@@H](NC(=O)OCc1ccccc1)C(C)C)C(=O)CF [Z-VAD-fmk] (Cbz-Val-Ala-Asp(OMe)-CH2F), the “blocking of GrB-induced neurotoxicity” value (human fetal neurons; [9]) was “significantly (P<0.05) blocked”.

For Cc1c(C)c2c(c(C)c1O)CCC(C)(C(=O)O)O2 (stereo not drawn) [trolox], the “blocking of GrB-induced neurotoxicity” value (human fetal neurons; [9]) was “blocked GrB neurotoxicity”.

“margatoxin (TIINVKCTSPKQCLPPCKAQFGQSAGAKCMNGKCKCYPH) [Margotoxin]” was tested, and the “concentration with significant protection against GB toxicity” value (human fetal neurons; GB 4 nM, trypan blue) was 1 to 10 nM, the “protection against GB toxicity (% trypan blue stained cells)” value (human fetal neurons; GB 4 nM, trypan blue) was “protected against GB toxicity in a dose responsive manner” and the “neuronal differentiation (βIII-tubulin positive cells and processes)” value [8] was “increased the number of βIII-tubulin positive cells and processes per cell”. The “effect on GB-induced caspase-3 activation” value [5] was “attenuated GB-induced caspase-3 activation”.

For MnTMPyP, the “blocking of GrB-induced neurotoxicity” value (human fetal neurons; [9]) was “significantly blocked the neurotoxicity”.

CCC(C)(C)C(=O)C(=O)N1CCC[C@H]1C(=O)OCCCc1cccnc1 [GPI-1046, 3-(3-pyridyl)-1-propyl (2S)-1-(3,3-dimethyl-1,2-dioxopentyl)-2-pyrrollidinecarboxylate] was tested, and the “blocking of GrB-induced neurotoxicity” value (human fetal neurons; [9]) was “blocked GrB neurotoxicity”.

B1: perforin: human perforin, membrane disrupting protein of lymphocyte granules (protein, UniProt P14222 22-555, looked up)
Perforin-1: PCHTAARSECKRSHKFVPGAWLAGEGVDVTSLRRSGSFPVDTQRFLRPDGTCTLCENALQEGTLQRLPLALTNWRAQGSGCQRHVTRAKVSSTEAVARDAARSIRNDWKVGLDVTPKPTSNVHVSVAGSHSQAANFAAQKTHQDQYSFSTDTVECRFYSFHVVHTPPLHPDFKRALGDLPHHFNASTQPAYLRLISNYGTHFIRAVELGGRISALTALRTCELALEGLTDNEVEDCLTVEAQVNIGIHGSISAEAKACEEKKKKHKMTASFHQTYRERHSEVVGGHHTSINDLLFGIQAGPEQYSAWVNSLPGSPGLVDYTLEPLHVLLDSQDPRREALRRALSQYLTDRARWRDCSRPCPPGRQKSPRDPCQCVCHGSAVTTQDCCPRQRGLAQLEVTFIQAWGLWGDWFTATDAYVKLFFGGQELRTSTVWDNNNPIWSVRLDFGDVLLATGGPLRLQVWDQDSGRDDDLLGTCDQAPKSGSHEVRCNLNHGHLKFRYHARCLPHLGGGTCLDYVPQMLLGEPPGNRSGAVW
B1 was tested, and the “enhancement of GrB neurotoxicity” value (human fetal neurons; perforin 50 ng/ml combined with GrB 1 nM) was “enhancement was not statistically significant”.
